The target of test [1] is von Hippel-Lindau disease tumor suppressor/GTPase KRas (Homo sapiens, UniProt P01116+P40337). The test is described as follows: Protac activity at VHL E3 ligase/KRAS G12 degradation in human MDA-MB-231 cells assessed as […] by western blot analysis. The test is classed as cell-based.
In test [2] the target is Protein cereblon/Tyrosine-protein kinase BTK (Homo sapiens, UniProt Q06187+Q96SW2, C481S). Briefly: Protac activity at CRBN (unknown origin)/BTK C481S mutant (unknown origin) assessed as BTK C481S mutant degradation. The test is classed as protein assay.
Chain of Protein cereblon/Tyrosine-protein kinase BTK (Q06187 2-659 C481S limits assumed, stated change not applied): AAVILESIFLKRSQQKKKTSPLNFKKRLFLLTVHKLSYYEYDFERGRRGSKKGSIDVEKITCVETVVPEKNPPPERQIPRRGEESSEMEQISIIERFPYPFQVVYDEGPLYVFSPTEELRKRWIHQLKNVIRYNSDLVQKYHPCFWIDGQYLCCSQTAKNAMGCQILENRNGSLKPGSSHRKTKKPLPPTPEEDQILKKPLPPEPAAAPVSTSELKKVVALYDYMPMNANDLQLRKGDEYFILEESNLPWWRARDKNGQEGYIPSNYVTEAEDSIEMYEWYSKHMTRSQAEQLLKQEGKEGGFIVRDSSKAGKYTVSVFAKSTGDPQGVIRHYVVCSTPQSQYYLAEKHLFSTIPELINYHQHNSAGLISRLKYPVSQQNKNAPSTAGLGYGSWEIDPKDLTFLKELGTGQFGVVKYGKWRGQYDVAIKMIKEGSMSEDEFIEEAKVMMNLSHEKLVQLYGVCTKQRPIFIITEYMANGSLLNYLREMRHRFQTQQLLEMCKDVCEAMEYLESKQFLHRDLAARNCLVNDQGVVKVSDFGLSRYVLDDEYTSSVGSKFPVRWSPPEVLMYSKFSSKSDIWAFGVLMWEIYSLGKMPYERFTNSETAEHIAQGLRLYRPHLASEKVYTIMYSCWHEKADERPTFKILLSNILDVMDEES
Chain of Protein cereblon/Tyrosine-protein kinase BTK (Q96SW2 whole entry, stated change not applied): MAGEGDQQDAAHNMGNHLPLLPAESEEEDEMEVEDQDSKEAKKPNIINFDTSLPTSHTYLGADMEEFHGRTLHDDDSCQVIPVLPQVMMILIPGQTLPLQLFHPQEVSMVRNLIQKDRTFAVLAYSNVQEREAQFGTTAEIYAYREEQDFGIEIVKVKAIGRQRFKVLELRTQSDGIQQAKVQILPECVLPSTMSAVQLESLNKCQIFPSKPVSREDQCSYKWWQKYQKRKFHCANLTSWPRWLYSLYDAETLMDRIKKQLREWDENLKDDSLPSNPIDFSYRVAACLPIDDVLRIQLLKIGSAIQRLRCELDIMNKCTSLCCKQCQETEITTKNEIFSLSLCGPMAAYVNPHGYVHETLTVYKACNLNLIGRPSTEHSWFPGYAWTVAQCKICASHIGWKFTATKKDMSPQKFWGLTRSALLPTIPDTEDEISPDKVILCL
Another test addresses 20S proteasome. The test is described as follows: Inhibition of 20S proteasome (unknown origin). The test is classed as protein-complex assay, Homo sapiens.
Test [3] deals with MDA-MB-231. The test is described as follows: Antitumor activity against human MDA-MB-231 cells xenografted in mouse model assessed as reduction in ERRalpha level in mouse heart at 100 mg/kg, ip administered 3 times a day relative to control. The test is classed as functional. Details: scale not given: the % may be the effect or the level left.
Test [4] deals with MDA-MB-231. Briefly: Antitumor activity against human MDA-MB-231 cells xenografted in mouse model assessed as reduction in ERRalpha level in mouse kidney at 100 mg/kg, ip administered 3 times a day relative to control. The test is classed as functional. Details: scale not given: the % may be the effect or the level left.
For test [5], the system named is MDA-MB-231. The test is described as follows: Antitumour activity against human MDA-MB-231 cells xenografted in mouse model assessed as reduction in ERRalpha level of tumor growth at 100 mg/kg, ip administered 3 times a day relative to control. Details: scale not given: the % may be the effect or the level left. The test is classed as functional.
For test [6], the system named is SUM-159-PT. Briefly: Inhibition of colony formation in human SUM159PT assessed as complete inhibition of cell growth measured after 48 hrs by crystal violet staining based analysis. The test is classed as functional.
The subject of test [7] is SUM-159-PT. The test is described as follows: Cytotoxicity against human SUM159PT cells assessed as cell growth inhibition measured after 72 hrs by MTS assay. The test is classed as functional, cell-based.
Another test concerns OCI-AML-3. Briefly: Cytotoxicity against human OCI-AML-3 cells assessed as cell growth inhibition measured after 72 hrs by spectrophotometry. The test is classed as functional, cell-based. The following applies: OCI-AML-3, 72 h.
Another test has as its system OCI-AML2. Briefly: Cytotoxicity against human OCI-AML2 cells assessed as cell growth inhibition measured after 72 hrs by spectrophotometry. The test is classed as functional, cell-based. The settings on record: OCI-AML2, 72 h.
Another test relates to HCT-116. The test is described as follows: Antiproliferative activity against human HCT-116 cells assessed as reduction in cell viability at 200 nm measured after 72 hrs by MTS assay relative to control. The test is classed as functional.
A short description of test [8]: Cytotoxicity against human TEX cells assessed as cell growth inhibition measured after 72 hrs by spectrophotometry. The test is classed as functional, cell-based.

The structures appear in SMILES notation.

Chain of von Hippel-Lindau disease tumor suppressor/GTPase KRas (P01116 whole entry): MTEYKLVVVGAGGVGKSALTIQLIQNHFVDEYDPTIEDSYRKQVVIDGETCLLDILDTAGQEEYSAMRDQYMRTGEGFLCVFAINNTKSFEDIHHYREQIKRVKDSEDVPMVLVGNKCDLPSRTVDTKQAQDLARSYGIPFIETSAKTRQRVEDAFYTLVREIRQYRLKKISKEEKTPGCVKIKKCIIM
Chain of von Hippel-Lindau disease tumor suppressor/GTPase KRas (P40337 whole entry): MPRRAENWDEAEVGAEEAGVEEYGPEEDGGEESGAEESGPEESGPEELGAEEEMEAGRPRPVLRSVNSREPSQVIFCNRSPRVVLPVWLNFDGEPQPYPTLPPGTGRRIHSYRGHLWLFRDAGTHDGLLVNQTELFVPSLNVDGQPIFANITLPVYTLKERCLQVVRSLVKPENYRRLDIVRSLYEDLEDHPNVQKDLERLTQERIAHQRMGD

On to `C=C(F)C(=O)N1CCN(c2nc(OC[C@@H]3CCCN3CCCOCCC(=O)N[C@H](C(=O)N3C[C@H](O)C[C@H]3C(=O)NCc3ccc(-c4scnc4C)cc3)C(C)(C)C)nc3c2CCN(c2cccc4cccc(Cl)c24)C3)C[C@@H]1CC#N`, for which the DC50 in test [1] amounted to 250 nM. Turning to `Nc1ncnc2c1c(-c1ccc(Oc3ccccc3)cc1)nn2[C@@H]1CCCN(C(=O)c2cn(CCOCCOCCOCCCc3cccc4c3C(=O)N(C3CCC(=O)NC3=O)C4=O)nn2)C1` (stereo partly drawn), the half-maximal degradation concentration (DC50) in test [2] is 50 nM.

`CC[C@H]1C(=O)NC2([C@@H](O)[C@@H]3C=CCCC3)C(=O)O[C@@H]12` (stereo partly drawn): the IC50 against 20S proteasome was 90 nM. `COc1cc(/C=C2\SC(=O)N(CCOCCC(=O)N[C@@H](C(=O)N3C[C@H](O)C[C@H]3C(=O)NCc3ccc(-c4scnc4C)cc3)C(C)(C)C)C2=O)ccc1Oc1ccc(C#N)cc1C(F)(F)F`: the results for the Activity in the test on MDA-MB-231 [3], in the test with MDA-MB-231 [4] and in the test on MDA-MB-231 [5] were 44%, 44% and 39%, respectively. Take `Cn1c2c(c(=O)n(Cc3ccc(Cl)cc3)c1=O)CN(Cc1cccc(C#N)c1)CC2`: the INH with SUM-159-PT [6] worked out at 30 nM. The IC50 in the test with SUM-159-PT [7] came out at 14 nM.

Turning to `Cc1cccc(CN2CCc3c(c(=O)n(Cc4ccc(C(F)(F)F)cc4)c(=O)n3CCCN)C2)c1`, the 50% inhibitory concentration (IC50) with SUM-159-PT [7] came to 57 nM. Regarding `N#Cc1cccc(CN2CCC3=C(C2)C(=O)N(Cc2ccc(C(F)(F)F)cc2)C2=NCCN23)c1`, the IC50 in the test on SUM-159-PT [7] was 11 nM. Regarding `O=C1C2=C(CCN(Cc3ccccc3)C2)N2CCN=C2N1Cc1ccc(C(F)(F)F)cc1`, the IC50 with OCI-AML-3 amounted to 60 nM; in the test with OCI-AML2 it was 76 nM; in test [8] it was 71 nM; in the test on SUM-159-PT [7], 77 nM. For the same molecule, the Activity with HCT-116 is 10%. As to `C#Cc1cccc(CN2CCC3=C(C2)C(=O)N(Cc2ccc(C)cc2)C2=NCCN23)c1`, the IC50 in the test with SUM-159-PT [7] was determined as 100 nM. As to `CCCC[C@@H](C=O)NC(=O)[C@H](CC(C)C)NC(=O)[C@@H](CC(C)C)NC(=O)CC`, half-maximal inhibition at 20S proteasome (IC50) was put at 90 nM. As to `N#Cc1cccc(CN2CCC3=C(C2)C(=O)N(Cc2ccc(Cl)cc2)C2=NCCN23)c1`, in the test with SUM-159-PT [7], the IC50 is 7.4 nM.

Values taken from ChEMBL document CHEMBL5223078, “Proteases and Their Modulators in Cancer Therapy: Challenges and Opportunities” (J Med Chem, 2021).
